Measurements as given in BindingDB's records for patent US20250313563 (The Broad Institute, 2025).
Values joined by “and” are separate entries in the source; they are usually repeats but may differ in a detail not shown here. Equal entries are not always repeated.

What was measured:
[1] = molecular target: Glycogen synthase kinase-3 beta (Homo sapiens, UniProt P49841); assay: TR-FRET Assay
How it was run: (§1)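 TR-FRET readout: streptavidin-d2 (40 nM in added detection mix) plus Tb-anti-pSer641 Ab (2 nM in mix). Steps were 30 min compound preincubation, kinase reaction, then EDTA stop.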

[2] = molecular target: Glycogen synthase kinase-3 alpha (Homo sapiens, UniProt P49840); assay: TR-FRET Assay
How it was run: as §1

Chain of Glycogen synthase kinase-3 beta (P49841 whole entry): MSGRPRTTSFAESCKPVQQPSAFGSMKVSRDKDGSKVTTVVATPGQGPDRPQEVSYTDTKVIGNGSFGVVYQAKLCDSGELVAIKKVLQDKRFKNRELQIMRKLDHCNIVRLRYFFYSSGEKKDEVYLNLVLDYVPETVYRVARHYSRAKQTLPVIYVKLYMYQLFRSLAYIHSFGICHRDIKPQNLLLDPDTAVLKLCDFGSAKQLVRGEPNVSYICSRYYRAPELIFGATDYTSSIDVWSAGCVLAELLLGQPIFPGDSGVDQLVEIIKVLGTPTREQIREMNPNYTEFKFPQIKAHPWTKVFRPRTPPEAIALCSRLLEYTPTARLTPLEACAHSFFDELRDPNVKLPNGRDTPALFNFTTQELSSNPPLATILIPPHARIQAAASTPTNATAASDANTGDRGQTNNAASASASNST
Chain of Glycogen synthase kinase-3 alpha (P49840 whole entry): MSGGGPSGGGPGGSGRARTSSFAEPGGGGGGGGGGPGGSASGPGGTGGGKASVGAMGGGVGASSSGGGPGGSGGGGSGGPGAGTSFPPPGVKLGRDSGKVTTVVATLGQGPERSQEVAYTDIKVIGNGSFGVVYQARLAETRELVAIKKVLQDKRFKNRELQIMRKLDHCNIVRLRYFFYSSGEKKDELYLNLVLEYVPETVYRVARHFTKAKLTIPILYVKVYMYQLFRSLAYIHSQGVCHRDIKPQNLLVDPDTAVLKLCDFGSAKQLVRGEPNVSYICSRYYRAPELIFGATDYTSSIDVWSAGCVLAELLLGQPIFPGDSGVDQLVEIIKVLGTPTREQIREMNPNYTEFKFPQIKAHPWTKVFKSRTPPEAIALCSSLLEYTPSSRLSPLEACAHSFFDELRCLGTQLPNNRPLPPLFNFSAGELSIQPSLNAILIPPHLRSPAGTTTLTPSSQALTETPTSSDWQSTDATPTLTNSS

IC50 [1] | IC50 [2] | Structure (SMILES)
1000 to 5000 nM | 100 to 1000 nM | CC[C@@]1(c2cccc(-c3cnn(-c4cnccn4)c3)c2)C2=CN=NC2NC2=C1C(=O)NC(C)(C)C2 (some centres undefined) [US20250313563, Compound 952207]
> 5000 nM | 1000 to 5000 nM | CC[C@]1(c2cccc(-c3ccnn3C)c2)C2=CN=NC2NC2=C1C(=O)N[C@](C)(COC)C2 (some centres undefined) [US20250313563, Compound 947908]
1000 to 5000 nM | 100 to 1000 nM | CC[C@@]1(c2cccc(-c3ccncc3CO)c2)C2=CN=NC2NC2=C1C(=O)CC(C)(C)C2 (some centres undefined) [US20250313563, Compound 945479]
1000 to 5000 nM | 100 to 1000 nM | CCC1(c2cccc(N3[C@H](C)CCC[C@@H]3C)c2)C2=CN=NC2NC2=C1C(=O)CC(C)(C)C2 (some centres undefined) [US20250313563, Compound 865172]
1000 to 5000 nM | 100 to 1000 nM | CC[C@@]1(c2cccc(-c3cnn(C)c3)c2)C2=CN=NC2NC2=C1C(=O)C[C@H](C)C2 (some centres undefined) [US20250313563, Compound 823724]
100 to 1000 nM | < 100 nM | CCC1(c2cccc(-c3cnn(CCOC)c3)c2)C2=C(CC(C)(C)CC2=O)NC2N=NC(C)=C21 (centres undefined) [US20250313563, Compound 883996]
< 100 nM | < 100 nM | CC1(C)CC(=O)C2=C(C1)NC1=C(CN=N1)C21COC2(CN(C(=O)C3CCCC3)C2)C1 (centres undefined) [US20250313563, Compound 917232]
100 to 1000 nM | < 100 nM | CCC1(c2cccc(Cl)c2)C2=C(CC(C)(C)CC2=O)NC2N=NC(C)=C21 (centres undefined) [US20250313563, Compound 789336]
100 to 1000 nM | 100 to 1000 nM | C[C@H]1CC(=O)C2=C(C1)NC1=C(CN=N1)[C@]2(C)c1ccccc1 [US20250313563, Compound 789332]
100 to 1000 nM | < 100 nM | Cc1cc(S(=O)(=O)N2CCC3(CC2)C2=C(N=NC2)NC2=C3C(=O)CC(C)(C)C2)ccc1OC(C)C [US20250313563, Compound 945678]
< 100 nM | < 100 nM | CCC1(c2cccc(N3CCCC3)c2)C2=C(CC(C)(C)CC2=O)NC2N=NC(C(F)(F)F)=C21 (centres undefined) [US20250313563, Compound 810506]
< 100 nM | < 100 nM | CC(=O)N1C[C@]2(C[C@@]3(CO2)C2=C(N=NC2)NC2=C3C(=O)CC(C)(C)C2)[C@H]1C [US20250313563, Compound 948437]
100 to 1000 nM | < 100 nM | CCC1(c2cccc(-c3cc(C)ncc3OC)c2)C2=CN=NC2NC2=C1C(=O)CC(C)(C)C2 (centres undefined) [US20250313563, Compound 945468]
100 to 1000 nM | 100 to 1000 nM | CCC1(c2cc(N(C)C(C)=O)ccc2F)C2=CN=NC2NC2=C1C(=O)CC(C)(C)C2 (centres undefined) [US20250313563, Compound 913124]
100 to 1000 nM | 100 to 1000 nM | O=C1CC(C(F)(F)F)CC2=C1C1(CCOCC1)C1=C(N=NC1)N2 (centres undefined) [US20250313563, Compound 889572]
100 to 1000 nM | < 100 nM | CCC1(c2cccc(Oc3ncccn3)c2)C2=CN=NC2NC2=C1C(=O)NC(C)(C)C2 (centres undefined) [US20250313563, Compound 948764]
< 100 nM | < 100 nM | CC1(C)CC(=O)C2=C(C1)NC1=C(CN=N1)C21COC2(CN(C(=O)CC3CCCCC3)C2)C1 (centres undefined) [US20250313563, Compound 947305]
100 to 1000 nM | < 100 nM | CC[C@@]1(c2cccc(-c3c(C)c(C)nn3C)c2)C2=CN=NC2NC2=C1C(=O)NC(C)(C)C2 (some centres undefined) [US20250313563, Compound 950062]
100 to 1000 nM | < 100 nM | CC[C@]1(c2cc(-c3cnn(C)c3)ccc2F)C2=CN=NC2NC2=C1C(=O)CC(C)(C)C2 (some centres undefined) [US20250313563, Compound 909220]
< 100 nM | < 100 nM | CC[C@@]1(c2cccc(S(=O)(=O)C3CC3)c2)C2=CN=NC2NC2=C1C(=O)NC(C)(C)C2 (some centres undefined) [US20250313563, Compound 945999]
> 5000 nM | 1000 to 5000 nM | CC[C@@]1(c2cccc(-c3cc(-c4ccccc4)nn3C(C)C)c2)C2=CN=NC2NC2=C1C(=O)NC(C)(C)C2 (some centres undefined) [US20250313563, Compound 952411]
1000 to 5000 nM | 100 to 1000 nM | CC[C@@]1(c2ccccc2)C2=CN=NC2NC2=C1C(=O)C[C@]1(CCOC1)C2 (some centres undefined) [US20250313563, Compound 816881]
1000 to 5000 nM | 100 to 1000 nM | CC1(C)CC(=O)C2=C(C1)NC1=C(CN=N1)[C@]21COC2(CN(C(=O)c3ccccc3)C2)C1 [US20250313563, Compound 943956]
100 to 1000 nM | < 100 nM | CC[C@]1(c2cccc(N(C)c3ccc(F)nc3)c2)C2=CN=NC2NC2=C1C(=O)CC(C)(C)C2 (some centres undefined) [US20250313563, Compound 932647]
1000 to 5000 nM | 100 to 1000 nM | CCC1(c2cccc(N(C)c3nc(C)cc(C)n3)c2)C2=CN=NC2NC2=C1C(=O)CC(C)(C)C2 (centres undefined) [US20250313563, Compound 926304]
100 to 1000 nM | < 100 nM | CCC1(c2cccc(C(F)(F)F)c2)C2=C(N=NC2)NC2=C1C(=O)N(C)C2(C)C (centres undefined) [US20250313563, Compound 913198]

IC50 [1] | IC50 [2] | Structure (SMILES)
< 100 nM | < 100 nM | C[C@@H]1C[C@]2(CCN1S(=O)(=O)c1ccn(C)n1)C1=C(N=NC1)NC1=C2C(=O)CC(C)(C)C1 [US20250313563, Compound 917161]
< 100 nM and 100 to 1000 nM | < 100 nM and 100 to 1000 nM | CC[C@]1(c2cccc(C(F)(F)C(F)(F)F)c2)C2=CN=NC2NC2=C1C(=O)CC(C)(C)C2 (some centres undefined) [US20250313563, Compound 949103]
< 100 nM | < 100 nM | CC1(C)CC(=O)C2=C(C1)NC1=C(CN=N1)C21COC2(CN(C(=O)C3(F)CCCC3)C2)C1 (centres undefined) [US20250313563, Compound 947277]
> 5000 nM | 1000 to 5000 nM | CC[C@@]1(c2cccc(C(F)(F)F)c2)C2=CN=NC2NC2=C1C(=O)N(c1cccc(C)c1)CC2 (some centres undefined) [US20250313563, Compound 949041]
100 to 1000 nM | 100 to 1000 nM | CC[C@H]1C[C@@]2(CO1)C1=C(N=NC1)NC1=C2C(=O)CC(C)(C)C1 [US20250313563, Compound 913216]
> 5000 nM | > 5000 nM | COCCN1CC2(C1)C1=C(N=NC1)NC1=C2C(=O)CC(C)(C)C1 [US20250313563, Compound 943544]
< 100 nM | < 100 nM | Cn1nccc1S(=O)(=O)N1CC2(C1)C1=C(N=NC1)NC1=C2C(=O)CC(C)(C)C1 [US20250313563, Compound 932648]
100 to 1000 nM | < 100 nM and 1000 to 5000 nM | CC[C@]1(c2cccc(C)c2)C2=CN=NC2NC2=C1C(=O)CC(C)(C)C2 (some centres undefined) [US20250313563, Compound 789560]
100 to 1000 nM | < 100 nM | CCC1(c2cccc(C(F)(F)F)c2)C2=CN=NC2NC2=C1C(=O)N(c1ccc(OC)cc1)CC2 (centres undefined) [US20250313563, Compound 947332]
> 5000 nM | 1000 to 5000 nM | CC[C@@]1(c2cccc(C(F)(F)F)c2)C2=C(N=NC2)NC2=C1C(=O)CC2 [US20250313563, Compound 951566]
> 5000 nM | 1000 to 5000 nM | CC[C@]1(c2cccc(C(F)F)c2)C2=CN=NC2NC2=C1C(=O)NC(C)(C)C2 (some centres undefined) [US20250313563, Compound 949007]
> 5000 nM | 1000 to 5000 nM | CC[C@]1(c2cccc(-c3ccnn3C)c2)C2=CN=NC2NC2=C1C(=O)N[C@]1(CCCOC1)C2 (some centres undefined) [US20250313563, Compound 948365]
< 100 nM | < 100 nM | CCC1(c2cccc(N(C)c3ccnc(F)c3)c2)C2=CN=NC2NC2=C1C(=O)CC(C)(C)C2 (centres undefined) [US20250313563, Compound 917146]
< 100 nM | < 100 nM | CCC1(c2cccc(-c3cc(C)ncc3F)c2)C2=C(CC(C)(C)NC2=O)NC2N=NC(C)=C21 (centres undefined) [US20250313563, Compound 948761]
< 100 nM | < 100 nM | CCC1(c2cccc(-c3cc(C)ncc3C)c2)C2=C(CC(C)(C)CC2=O)NC2N=NC(C)=C21 (centres undefined) [US20250313563, Compound 883988]
1000 to 5000 nM | 100 to 1000 nM | CC[C@@]1(c2cccc(-c3cc(C4CCCC4)nn3C)c2)C2=CN=NC2NC2=C1C(=O)NC(C)(C)C2 (some centres undefined) [US20250313563, Compound 952023]
> 5000 nM | 100 to 1000 nM | CC[C@@]1(c2cccc(C(F)(F)F)c2)C2=CN=NC2NC2=C1C(=O)N(c1ccccn1)CC2 (some centres undefined) [US20250313563, Compound 949311]
100 to 1000 nM | < 100 nM | CCC1(c2cccc(C(F)(F)F)c2)C2=CN=NC2NC2=C1C(=O)N(c1ccsc1)CC2 (centres undefined) [US20250313563, Compound 950776]
100 to 1000 nM and > 5000 nM | < 100 nM and 100 to 1000 nM | CC[C@]1(c2cccc(-c3ccnn3C)c2)C2=CN=NC2NC2=C1C(=O)CC(C)(C)[C@@H]2F (some centres undefined) [US20250313563, Compound 957506]
1000 to 5000 nM | 100 to 1000 nM | CC[C@]1(c2cccc(-c3cnn(C(C)C)c3F)c2)C2=CN=NC2NC2=C1C(=O)NC(C)(C)C2 (some centres undefined) [US20250313563, Compound 949267]
< 100 nM and 1000 to 5000 nM | < 100 nM and 100 to 1000 nM | COc1cc(S(=O)(=O)N2CCC3(CC2)C2=C(N=NC2)NC2=C3C(=O)CC(C)(C)C2)ccc1F [US20250313563, Compound 947263]
> 5000 nM | > 5000 nM | CC1(C)CC(=O)C2=C(C1)NC1=C(CN=N1)[C@@]21CCO[C@H](C(C)(C)C)C1 [US20250313563, Compound 912107]
> 5000 nM | 100 to 1000 nM | CCC1(c2ccc(C)cc2)C2=C(N=NC2)NC2=C1C(=O)CC(C)(C)C2 (centres undefined) [US20250313563, Compound 785739]
> 5000 nM | > 5000 nM | CC[C@]1(c2cccc(-c3ccnc(C(F)F)c3)c2)C2=CN=NC2NC2=C1C(=O)CC(C)(C)C2 (some centres undefined) [US20250313563, Compound 943915]
1000 to 5000 nM | 100 to 1000 nM | CCC1(c2cccc(N(C)C(=O)C3CCN(C)CC3)c2)C2=CN=NC2NC2=C1C(=O)CC(C)(C)C2 (centres undefined) [US20250313563, Compound 912167]
100 to 1000 nM | < 100 nM | CC[C@@]1(c2cccc(-c3ccnc4cc(F)cnc34)c2)C2=CN=NC2NC2=C1C(=O)NC(C)(C)C2 (some centres undefined) [US20250313563, Compound 952758]
